Assay results as given in patent US9593097B2, “Axl inhibitors” (Pfizer Inc., priority 2014, dated 2017).

Target: Axl phosphorylation in 293MSR-AxlWT6 cells (Homo sapiens (Human), UniProt P30530)
Assay: Cellular Axl phosphorylation ELISA assay (Gas6-stimulated 293MSR-AxlWT6 cells)
Type: cell-based
Conditions: Table 4A, read-out: CELL AXL IC50
Method: Cellular Axl Phosphorylation ELISA Assay
After 6-7 hrs in tissue culture incubator at 37° C. 5% CO2, medium was removed, serum-free medium was added (with 0.04% bovine serum albumin) and plates were returned to incubator where they remained overnight. […] Media was then removed and lysis buffer was added to wells and shaken at 4° C. for 30 min to generate protein lysates. Subsequently, phosphorylation of Axl was assessed by a sandwich ELISA method using a DuoSet IC Human Phospho-Axl ELISA assay kit (R&D System), an immobilized mouse anti-human Axl antibody and an anti-phospho-tyrosine-HRP antibody as a detection antibody. Antibody-coated plates were (a) incubated in presence of protein lysates at room temperature for 2 hrs, (b) washed seven times in 0.1% Tween 20 in PBS, (c) incubated with secondary antibody (a horseradish peroxidase-conjugated […]) for 2 hrs, (d) washed seven times again, (e) TMB peroxidase substrate (Bio-Rad) was added to initiate a colorimetric reaction and stopped by adding 0.2 N H2SO4, and (f) measured at OD 450 nm using a spectrophotometer. IC50 values were calculated by concentration-response curve fitting using a four-parameter analytic method and reported in μM.
For Table 4B, IC50 values were calculated by concentration-response curve fitting using a four-parameter analytic method and reported in nM.

Axl phosphorylation in 293MSR-AxlWT6 cells, sequence (P30530 26-894): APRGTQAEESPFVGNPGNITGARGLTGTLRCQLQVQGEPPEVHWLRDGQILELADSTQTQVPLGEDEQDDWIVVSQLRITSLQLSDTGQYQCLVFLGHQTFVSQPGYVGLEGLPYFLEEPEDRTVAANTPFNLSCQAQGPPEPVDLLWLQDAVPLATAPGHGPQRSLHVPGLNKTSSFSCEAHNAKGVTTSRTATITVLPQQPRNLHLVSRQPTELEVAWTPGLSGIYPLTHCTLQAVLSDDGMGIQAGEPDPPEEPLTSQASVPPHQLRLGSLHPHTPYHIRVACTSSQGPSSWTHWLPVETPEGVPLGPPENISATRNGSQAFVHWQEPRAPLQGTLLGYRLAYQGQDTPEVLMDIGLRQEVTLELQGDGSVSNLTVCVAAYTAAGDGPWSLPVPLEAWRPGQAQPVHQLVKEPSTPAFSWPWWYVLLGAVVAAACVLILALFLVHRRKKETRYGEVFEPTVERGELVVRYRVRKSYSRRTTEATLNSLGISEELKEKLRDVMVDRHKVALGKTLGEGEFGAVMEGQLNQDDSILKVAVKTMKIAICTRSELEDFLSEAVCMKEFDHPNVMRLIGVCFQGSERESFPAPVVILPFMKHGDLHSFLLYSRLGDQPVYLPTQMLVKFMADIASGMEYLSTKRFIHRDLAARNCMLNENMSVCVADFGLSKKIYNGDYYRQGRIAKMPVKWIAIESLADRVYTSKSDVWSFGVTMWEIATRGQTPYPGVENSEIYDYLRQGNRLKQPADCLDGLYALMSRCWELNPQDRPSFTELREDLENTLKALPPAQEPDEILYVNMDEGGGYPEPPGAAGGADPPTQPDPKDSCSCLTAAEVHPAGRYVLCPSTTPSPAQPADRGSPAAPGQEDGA

IC50 | Compound
30.5 nM | CC(CN(C)C)NC(=O)c1cc(N2CCC(c3ccc(N)c(C(N)=O)n3)CC2)nc(OCC2CC2)n1 (centres unmarked) [Example 34, 6-[4-(5-amino-6-carbamoylpyridin-2-yl)piperidin-1-yl]-2-(cyclopropyl-methoxy)-N-[1-(dimethylamino)propan-2-yl]pyrimidine-4-carboxamide]
2.83 nM | COC[C@@H](C)Oc1nc(C(=O)NC2CCC2)cc(N2CCC(c3ccc(N)c(C(N)=O)n3)CC2)n1 [Example 4, 6-[4-(5-amino-6-carbamoylpyridin-2-yl)piperidin-1-yl]-N-cyclobutyl-2-{[(2R)-1-methoxypropan-2-yl]oxy}pyrimidine-4-carboxamide]
5.21 nM | N#C[C@@H]1C[C@@H]1COc1nc(C(=O)NC23CC(C2)C3)cc(N2CCC(c3n[nH]c4ncc(OCCO)cc34)CC2)n1 [Example 81, N-(bicyclo[1.1.1]pent-1-yl)-2-{[(1S,2R)-2-cyanocyclopropyl]methoxy}-6-{4-[5-(2-hydroxyethoxy)-1H-pyrazolo[3,4-b]pyridin-3-yl]piperidin-1-yl}pyrimidine-4-carboxamide]
37 nM | CCNC(=O)c1cc(N2CCC(COc3cc(C#N)cnc3N)CC2)nc(O[C@H](C)COC)n1 [Example 21, 6-(4-{[(2-amino-5-cyanopyridin-3-yl)oxy]methyl}piperidin-1-yl)-N-ethyl-2-{[(2R)-1-methoxypropan-2-yl]oxy}pyrimidine-4-carboxamide]
154 nM | C[C@H](CO)NC(=O)c1cc(N2CCC(c3n[nH]c4ncccc34)CC2)nc(OC[C@@H]2CCOC2)n1 [Example 382, N-[(2R)-1-hydroxypropan-2-yl]-6-[4-(1H-pyrazolo[3,4-b]pyridin-3-yl)piperidin-1-yl]-2-[(3R)-tetrahydrofuran-3-ylmethoxy]pyrimidine-4-carboxamide]
38.1 nM | CC(C)(C)NC(=O)c1cc(N2CCC(c3n[nH]c4ncncc34)CC2)nc(OC[C@H]2C[C@H]2C#N)n1 [Example 48, N-tert-butyl-2-{[(1S,2R)-2-cyanocyclopropyl]methoxy}-6-[4-(1H-pyrazolo[3,4-d]pyrimidin-3-yl)piperidin-1-yl]pyrimidine-4-carboxamide]
0.24 nM | COc1ccnc2[nH]cc(C3CCN(c4nc(OC[C@H]5C[C@H]5C#N)nc(C(=O)NC5(C)CCC5)n4)CC3)c12 [Example 378, 4-{[(1S,2R)-2-cyanocyclopropyl]methoxy}-6-[4-(4-methoxy-1H-pyrrolo[2,3-b]pyridin-3-yl)piperidin-1-yl]-N-(1-methylcyclobutyl)-1,3,5-triazine-2-carboxamide]
6.98 nM | N#CC1(COc2nc(C(=O)NC34CC(C3)C4)nc(N3CCC(COc4cccnc4N)CC3)n2)CC1 [Example 90, 4-(4-{[(2-aminopyridin-3-yl)oxy]methyl}piperidin-1-yl)-N-(bicyclo[1.1.1]pent-1-yl)-6-[(1-cyanocyclopropyl)methoxy]-1,3,5-triazine-2-carboxamide]
2.94 nM | CCNC(=O)c1cc(N2CCC(COc3cc(-c4cn(C)cn4)cnc3N)CC2)nc(O[C@H](C)COC)n1 [Example 68, 6-[4-({[2-amino-5-(1-methyl-1H-imidazol-4-yl)pyridin-3-yl]oxy}methyl)piperidin-1-yl]-N-ethyl-2-{[(2R)-1-methoxypropan-2-yl]oxy}pyrimidine-4-carboxamide]
39.9 nM | C[C@@H](NC(=O)c1cc(N2CCC(c3cccc(C(N)=O)n3)CC2)nc(OCC2CC2(F)F)n1)C(C)(C)O (stereo partly drawn) [Example 17, 6-[4-(6-carbamoylpyridin-2-yl)piperidin-1-yl]-2-[(2,2-difluoro-cyclopropyl)methoxy]-N-[(2R)-3-hydroxy-3-methylbutan-2-yl]pyrimidine-4-carboxamide]
38.7 nM | N#C[C@@H]1C[C@@H]1COc1nc(C(=O)NC23CC(C2)C3)cc(N2CCC(COc3cncnc3N)C(F)(F)C2)n1 (single isomer, unassigned) [Example 62]
228 nM | C[C@H](CO)Oc1nc(C(=O)NC23CC(C2)C3)cc(N2CCC(c3n[nH]c4ncccc34)CC2)n1 [Example 69, N-(bicyclo[1.1.1]pent-1-yl)-2-{[(2R)-1-hydroxypropan-2-yl]oxy}-6-[4-(1H-pyrazolo[3,4-b]pyridin-3-yl)piperidin-1-yl]pyrimidine-4-carboxamide]
10.2 nM | COC[C@@H](C)Oc1nc(C(=O)NC2CCC2)cc(N2CCC(c3cccc(C(N)=O)n3)CC2)n1 [Example 11, 6-[4-(6-carbamoylpyridin-2-yl)piperidin-1-yl]-N-cyclobutyl-2-{[(2R)-1-methoxypropan-2-yl]oxy}pyrimidine-4-carboxamide]
12.4 nM | NC(=O)c1nc(C2CCN(c3cc(C(=O)NCC(F)(F)F)nc(OCC4CC4(F)F)n3)CC2)ccc1N (centres unmarked) [Example 5, 6-[4-(5-amino-6-carbamoylpyridin-2-yl)piperidin-1-yl]-2-[(2,2-difluoro-cyclopropyl)methoxy]-N-(2,2,2-trifluoroethyl) pyrimidine-4-carboxamide]
83.8 nM | CN(C)CCOc1ccc(C(N)=O)nc1C1CCN(c2cc(C(=O)NC3CCC3)nc(OCC3CC3(F)F)n2)CC1 (centres unmarked) [Example 39, 6-(4-{6-carbamoyl-3-[2-(dimethylamino)ethoxy]pyridin-2-yl}piperidin-1-yl)-N-cyclobutyl-2-[(2,2-difluoro-cyclopropyl)methoxy] pyrimidine-4-carboxamide]
0.77 nM | COc1ccnc2[nH]nc(C3CCN(c4cc(C(=O)N[C@@H](C)C(F)(F)F)nc(OC[C@H]5CCO5)n4)CC3)c12 [Example 381, 6-[4-(4-methoxy-1H-pyrazolo[3,4-b]pyridin-3-yl)piperidin-1-yl]-2-[(2R)-oxetan-2-ylmethoxy]-N-[(2S)-1,1,1-trifluoropropan-2-yl]pyrimidine-4-carboxamide]
18.7 nM | CS(=O)(=O)COc1ccnc2[nH]nc(C3CCN(c4cc(C(=O)NC56CC(C5)C6)nc(OC[C@H]5C[C@H]5C#N)n4)CC3)c12 [Example 67, N-(bicyclo[1.1.1]pent-1-yl)-2-{[(1S,2R)-2-cyanocyclopropyl]methoxy}-6-(4-{4-[(methylsulfonyl)methoxy]-1H-pyrazolo[3,4-b]pyridin-3-yl}piperidin-1-yl)pyrimidine-4-carboxamide]
77.9 nM | COC[C@@H](C)Oc1nc(C(=O)NCC(C)(C)O)cc(N2CCC(c3ccc(N)c(C(N)=O)n3)CC2)n1 [Example 8, 6-[4-(5-amino-6-carbamoylpyridin-2-yl)piperidin-1-yl]-N-(2-hydroxy-2-methylpropyl)-2-{[(2R)-1-methoxypropan-2-yl]oxy}pyrimidine-4-carboxamide]
5.27 nM | COC[C@@H](C)Oc1nc(C(=O)NC23CC(C2)C3)nc(N2CCC(c3ccc(N)c(C(N)=O)n3)CC2)n1 [Example 54, 4-[4-(5-amino-6-carbamoylpyridin-2-yl)piperidin-1-yl]-N-(bicyclo[1.1.1]pent-1-yl)-6-{[(2R)-1-methoxypropan-2-yl]oxy}-1,3,5-triazine-2-carboxamide]
0.2 nM | COc1ccnc2[nH]cc(C3CCN(c4nc(OC[C@H]5C[C@H]5C#N)nc(C(=O)N[C@@H](C)C(F)(F)F)n4)CC3)c12 [Example 379, 4-{[(1S,2R)-2-cyanocyclopropyl]methoxy}-6-[4-(4-methoxy-1H-pyrrolo[2,3-b]pyridin-3-yl)piperidin-1-yl]-N-[(2S)-1,1,1-trifluoropropan-2-yl]-1,3,5-triazine-2-carboxamide]
4.31 nM | C[C@H](CO)NC(=O)c1cc(N2CCC(c3n[nH]c4ncccc34)CC2)nc(OCC2CC2)n1 [Example 72, 2-(cyclopropyl-methoxy)-N-[(2R)-1-hydroxypropan-2-yl]-6-[4-(1H-pyrazolo[3,4-b]pyridin-3-yl)piperidin-1-yl]pyrimidine-4-carboxamide]
1.92 nM | COC[C@@H](C)Oc1nc(C(=O)NC23CC(C2)C3)cc(N2CCC(COc3nc(C)cnc3N)CC2)n1 [Example 24, 6-(4-{[(3-amino-6-methylpyrazin-2-yl)oxy]methyl}piperidin-1-yl)-N-(bicyclo[1.1.1]pent-1-yl)-2-{[(2R)-1-methoxypropan-2-yl]oxy}pyrimidine-4-carboxamide]
7.89 nM | C[C@H](CO)NC(=O)c1cc(N2CCC(c3c[nH]c4ncccc34)CC2)nc(OC[C@H]2C[C@H]2C#N)n1 [Example 51, 2-{[(1S,2R)-2-cyanocyclopropyl]methoxy}-N-[(2R)-1-hydroxypropan-2-yl]-6-[4-(1H-pyrrolo[2,3-b]pyridin-3-yl)piperidin-1-yl]pyrimidine-4-carboxamide]
131 nM | C[C@H](CO)NC(=O)c1cc(N2CCC(c3n[nH]c4ncccc34)CC2)nc(OC[C@H]2C[C@H]2C#N)n1 [Example 43, 2-{[(1S,2R)-2-cyanocyclopropyl]methoxy}-N-[(2R)-1-hydroxypropan-2-yl]-6-[4-(1H-pyrazolo[3,4-b]pyridin-3-yl)piperidin-1-yl]pyrimidine-4-carboxamide]
29.1 nM | COC[C@@H](C)Oc1nc(C(=O)NCC(F)(F)F)cc(N2CCC(c3ccc(N)c(C(N)=O)n3)CC2)n1 [Example 6, 6-[4-(5-amino-6-carbamoylpyridin-2-yl)piperidin-1-yl]-2-{[(2R)-1-methoxypropan-2-yl]oxy}-N-(2,2,2-trifluoroethyl) pyrimidine-4-carboxamide]
231 nM | N#CC1(COc2nc(C(=O)NCC(F)(F)F)nc(N3CCC(c4c[nH]c5nccnc45)CC3)n2)CC1 [Example 132, 4-(4-(5H-pyrrolo[2,3-b]pyrazin-7-yl)piperidin-1-yl)-6-((1-cyanocyclopropyl)methoxy)-N-(2,2,2-trifluoroethyl)-1,3,5-triazine-2-carboxamide]
